The values that follow come from ChEMBL document CHEMBL4765450, “The components and activities analysis of a novel anticoagulant candidate dHG-5” (Eur J Med Chem, 2020).

Activity calls are given as the source filed them. The calls are words filed in the database; no cut-off is given here.

The target of experiment [1] is Coagulation factor XI (Homo sapiens) (UniProt P03951). As to the kind of experiment: Inhibition of factor 11a (unknown origin) at IC50 using S-2366 as substrate preincubated for 1 min followed by chromogenic substrate addition and measured for 2 mins in presence of AT-III. To be noted: time 3.0 min.
In experiment [2] the target is T1, Coagulation factor VII (Homo sapiens) (UniProt P08709).
T1 sequence (whole entry): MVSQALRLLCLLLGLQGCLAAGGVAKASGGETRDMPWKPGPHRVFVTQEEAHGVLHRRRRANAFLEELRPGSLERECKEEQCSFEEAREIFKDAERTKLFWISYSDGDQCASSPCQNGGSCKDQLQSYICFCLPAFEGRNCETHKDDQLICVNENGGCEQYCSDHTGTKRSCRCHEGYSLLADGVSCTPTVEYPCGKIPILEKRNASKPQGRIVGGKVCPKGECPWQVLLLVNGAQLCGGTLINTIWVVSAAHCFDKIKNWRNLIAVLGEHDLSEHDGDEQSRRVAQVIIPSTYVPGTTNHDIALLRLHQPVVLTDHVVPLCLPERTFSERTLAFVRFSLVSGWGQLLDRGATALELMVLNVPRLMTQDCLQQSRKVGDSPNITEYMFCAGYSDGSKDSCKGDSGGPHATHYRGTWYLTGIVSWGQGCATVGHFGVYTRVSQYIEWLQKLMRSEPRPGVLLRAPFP
The experiment in a line: Inhibition of factor 7a (unknown origin) at IC50 using pefachrome factor VIIa as substrate preincubated for 1 min followed by chromogenic substrate addition and measured for 2 mins. To be noted: time 3.0 min.

The target in experiment [3] is T2, Coagulation factor IX (Homo sapiens, UniProt P00740). The experiment in a line: Inhibition of factor 9a (unknown origin) binding to immobilized biotinylated oHG-11 by biolayer interferometry relative to dHG-5. (BLI is a label-free optical method that tracks binding on a fibre tip over time.)
Experiment [4] concerns the target Coagulation factor X (Homo sapiens) (UniProt P00742). The experiment in a line: Inhibition of factor 10a (unknown origin) at IC50 preincubated for 1 min followed by chromogenic substrate addition and measured for 2 mins. The note with it: time 3.0 min.
Experiment [5] concerns the target Coagulation factor XI (Homo sapiens) (UniProt P03951). The experiment in a line: Inhibition of factor 11a (unknown origin) at IC50 using S-2366 as substrate preincubated for 1 min followed by chromogenic substrate addition and measured for 2 mins. To be noted: time 3.0 min.
In experiment [6] the target is Coagulation factor X (Homo sapiens) (UniProt P00742). As to the kind of experiment: Inhibition of factor 10a (unknown origin) at IC50 preincubated for 1 min followed by chromogenic substrate addition and measured for 2 mins in presence of AT-III. The note with it: time 3.0 min.
Experiment [7] has as its target T3, Coagulation factor IX/VIII (Homo sapiens) (UniProt P00740+P00451). The experiment in a line: Inhibition of human citrated plasma iXase (factor 8a-factor 9a complex) preincubated for 2 mins followed by factor 10 addition and measured after 1 min by FXa chromogenic substrate SXa-11 based assay relative to dHG-5. The experiment is classed as protein-complex assay. The note with it: time 3.0 min.

Experiment [8] addresses T4, Coagulation factor XII (Homo sapiens) (UniProt P00748).
T4 sequence (whole entry): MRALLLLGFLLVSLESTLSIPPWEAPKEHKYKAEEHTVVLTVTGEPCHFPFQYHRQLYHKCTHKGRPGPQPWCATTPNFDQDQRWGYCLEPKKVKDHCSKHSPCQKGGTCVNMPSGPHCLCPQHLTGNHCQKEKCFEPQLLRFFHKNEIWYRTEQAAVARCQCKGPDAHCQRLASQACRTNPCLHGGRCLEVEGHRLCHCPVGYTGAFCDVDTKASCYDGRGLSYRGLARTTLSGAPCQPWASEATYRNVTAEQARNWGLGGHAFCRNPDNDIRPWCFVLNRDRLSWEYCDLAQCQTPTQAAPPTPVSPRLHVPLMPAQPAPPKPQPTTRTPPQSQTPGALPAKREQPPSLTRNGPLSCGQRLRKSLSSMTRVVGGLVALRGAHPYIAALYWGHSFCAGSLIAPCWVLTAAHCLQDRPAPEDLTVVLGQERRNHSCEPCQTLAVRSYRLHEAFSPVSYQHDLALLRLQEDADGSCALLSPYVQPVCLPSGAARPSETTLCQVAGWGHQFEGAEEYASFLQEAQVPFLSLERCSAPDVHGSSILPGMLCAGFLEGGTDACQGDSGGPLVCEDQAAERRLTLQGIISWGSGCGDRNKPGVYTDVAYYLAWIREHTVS
The experiment in a line: Inhibition of factor 12a (unknown origin) at IC50 using kallikrein chromogenic substrate preincubated for 1 min followed by chromogenic substrate addition and measured for 2 mins. The note with it: time 3.0 min.

Experiment [9] concerns Rattus norvegicus. As to the kind of experiment: Antithrombotic activity in thromboplastin and stasis-induced Sprague-Dawley rat deep venous thrombosis model assessed as reduction in venous thrombosis at 1.66 mg/kg, sc administered 1 hr prior to thromboplastin addition for 20 secs followed by establishment of stasis for 20 mins relative to dHG-5. The experiment is classed as functional. To be noted: time 80.33 min, 1.339 h.

The subject of experiment [10] is Rattus norvegicus. The experiment in a line: Antithrombotic activity in thromboplastin and stasis-induced Sprague-Dawley rat deep venous thrombosis model assessed as reduction in venous thrombosis by measuring activity potency of oligosaccharides multiplied by the percentage of oligosaccharides in dHG-5 at 1.66 mg/kg, sc administered 1 hr prior to thromboplastin addition for 20 secs followed by establishment of stasis for 20 mins relative …. The experiment is classed as functional. The note with it: time 80.33 min, 1.339 h.

Experiment [11] relates to Plasma. As to the kind of experiment: Anticoagulation activity in human plasma assessed as drug level causing 20 times doubling of APTT preincubated for 2 mins followed by APTT reagent and measured after 3 mins by coagulometric method relative to dHG-5. The format is functional. The note with it: time 5 min.
In experiment [12] the target is Coagulation factor XI (Homo sapiens) (UniProt P03951). The experiment in a line: Inhibition of factor 11a (unknown origin) at IC90 using S-2366 as substrate preincubated for 1 min followed by chromogenic substrate addition and measured for 2 mins in presence of AT-III. The note with it: time 3.0 min.
For experiment [13], the target named is Coagulation factor X (Homo sapiens) (UniProt P00742). As to the kind of experiment: Inhibition of factor 10a (unknown origin) at IC90 preincubated for 1 min followed by chromogenic substrate addition and measured for 2 mins in presence of AT-III relative to control. The note with it: time 3.0 min.
In experiment [14] the target is Prothrombin (Homo sapiens) (UniProt P00734). The experiment in a line: Inhibition of factor 2a (unknown origin) at IC50 preincubated for 1 min followed by chromogenic substrate addition and measured for 2 mins. To be noted: time 3.0 min.
The target is the same in experiment [15]. As to the kind of experiment: Inhibition of factor 2a (unknown origin) at IC50 preincubated for 1 min followed by chromogenic substrate addition and measured for 2 mins in presence of AT-III. The note with it: time 3.0 min.
The target of experiment [16] is T1, Coagulation factor VII (Homo sapiens). As to the kind of experiment: Inhibition of factor 7a (unknown origin) at IC50 using pefachrome factor VIIa as substrate preincubated for 1 min followed by chromogenic substrate addition and measured for 2 mins in presence of AT-III. To be noted: time 3.0 min.
For experiment [17], the target named is Prothrombin (Homo sapiens) (UniProt P00734). As to the kind of experiment: Inhibition of factor 2a (unknown origin) at IC90 preincubated for 1 min followed by chromogenic substrate addition and measured for 2 mins in presence of AT-III. The note with it: time 3.0 min.
Experiment [18] concerns the target T2, Coagulation factor IX. As to the kind of experiment: Inhibition of factor 9a (unknown origin) binding to immobilized biotinylated oHG-11 assessed as activity potency of oligosaccharides multiplied by the percentage of oligosaccharides in dHG-5 by biolayer interferometry relative to dHG-5.
In experiment [19] the test system is Plasma. As to the kind of experiment: Anticoagulation activity in human plasma assessed as drug level causing 20 times doubling of APTT by measuring activity potency of oligosaccharides multiplied by the percentage of oligosaccharides in dHG-5 preincubated for 2 mins followed by APTT reagent and measured after 3 mins by coagulometric method relative to dHG-5. The format is functional. The note with it: time 5 min.

The target of experiment [20] is T3, Coagulation factor IX/VIII (Homo sapiens). The experiment in a line: Inhibition of human citrated plasma iXase (factor 8a-factor 9a complex) assessed as activity potency of oligosaccharides multiplied by the percentage of oligosaccharides in dHG-5 preincubated for 2 mins followed by factor 10 addition and measured after 1 min by FXa chromogenic substrate SXa-11 based assay relative to dHG-5. The experiment is classed as protein-complex assay. The note with it: time 3.0 min.

The target in experiment [21] is T4, Coagulation factor XII (Homo sapiens). The experiment in a line: Inhibition of factor 12a (unknown origin) at IC50 using kallikrein chromogenic substrate preincubated for 1 min followed by chromogenic substrate addition and measured for 2 mins in presence of AT-III. The note with it: time 3.0 min.

Chain of Coagulation factor X (Homo sapiens) (P00742 41-179 limits assumed): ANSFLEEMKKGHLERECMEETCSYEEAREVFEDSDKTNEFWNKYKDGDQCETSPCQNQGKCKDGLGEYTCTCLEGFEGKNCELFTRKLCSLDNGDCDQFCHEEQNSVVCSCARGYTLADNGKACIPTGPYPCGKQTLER
Chain of Coagulation factor X (Homo sapiens) (P00742 235-488 limits assumed): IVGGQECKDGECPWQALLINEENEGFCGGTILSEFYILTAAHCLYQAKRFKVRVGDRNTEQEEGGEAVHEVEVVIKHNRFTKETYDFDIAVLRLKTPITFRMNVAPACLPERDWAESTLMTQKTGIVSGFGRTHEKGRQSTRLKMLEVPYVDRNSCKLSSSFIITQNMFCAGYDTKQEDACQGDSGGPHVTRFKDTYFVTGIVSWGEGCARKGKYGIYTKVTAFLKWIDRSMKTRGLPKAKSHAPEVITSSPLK
Chain of Coagulation factor XI (Homo sapiens) (P03951 19-387 limits assumed): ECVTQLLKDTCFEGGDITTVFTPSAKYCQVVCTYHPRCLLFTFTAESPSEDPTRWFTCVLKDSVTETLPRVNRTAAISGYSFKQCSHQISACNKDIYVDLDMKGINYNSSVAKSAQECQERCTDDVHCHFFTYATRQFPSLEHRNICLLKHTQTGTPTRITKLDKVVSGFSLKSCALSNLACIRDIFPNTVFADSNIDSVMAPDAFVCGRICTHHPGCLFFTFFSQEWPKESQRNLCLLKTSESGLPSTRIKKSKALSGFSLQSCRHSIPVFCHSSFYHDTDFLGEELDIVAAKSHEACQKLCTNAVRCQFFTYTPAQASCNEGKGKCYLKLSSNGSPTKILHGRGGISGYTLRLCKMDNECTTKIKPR
Chain of Coagulation factor XI (Homo sapiens) (P03951 388-625 limits assumed): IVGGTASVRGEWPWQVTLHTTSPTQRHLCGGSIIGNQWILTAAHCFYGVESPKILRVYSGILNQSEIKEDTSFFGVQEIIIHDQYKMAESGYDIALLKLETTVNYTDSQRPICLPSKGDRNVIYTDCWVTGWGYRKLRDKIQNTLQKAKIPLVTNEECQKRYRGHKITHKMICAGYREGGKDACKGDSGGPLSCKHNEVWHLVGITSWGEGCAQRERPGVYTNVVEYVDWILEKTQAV
T2 sequence (P00740 47-191 limits assumed): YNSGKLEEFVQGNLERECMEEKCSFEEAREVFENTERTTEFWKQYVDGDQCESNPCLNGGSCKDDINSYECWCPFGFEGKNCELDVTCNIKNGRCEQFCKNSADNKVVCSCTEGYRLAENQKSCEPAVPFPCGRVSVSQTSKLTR
T2 sequence (P00740 227-461 limits assumed): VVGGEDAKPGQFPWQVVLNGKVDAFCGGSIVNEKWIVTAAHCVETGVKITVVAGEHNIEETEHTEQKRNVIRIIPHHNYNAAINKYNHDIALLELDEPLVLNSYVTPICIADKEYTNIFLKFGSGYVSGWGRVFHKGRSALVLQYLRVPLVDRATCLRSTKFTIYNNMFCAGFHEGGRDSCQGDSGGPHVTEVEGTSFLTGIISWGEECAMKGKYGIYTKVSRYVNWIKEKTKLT

Consider `CC(=O)N[C@H]1[C@H](O[C@H]2[C@H](O[C@@H]3O[C@@H](C)[C@@H](OS(=O)(=O)[O-])[C@@H](OS(=O)(=O)O)[C@@H]3O)[C@@H](O)[C@H](O[C@@H]3[C@@H](NC(C)=O)[C@H](O[C@H]4[C@H](O[C@@H]5O[C@@H](C)[C@@H](OS(=O)(=O)[O-])[C@@H](OS(=O)(=O)O)[C@@H]5O)[C@@H](O)[C@H](O[C@@H]5[C@@H](NC(C)=O)[C@H](O[C@H]6[C@H](O[C@@H]7O[C@@H](C)[C@@H](OS(=O)(=O)[O-])[C@@H](OS(=O)(=O)O)[C@@H]7O)[C@@H](O)[C@H](O[C@@H]7[C@@H](NC(C)=O)[C@H](O[C@H]8[C@H](O[C@@H]9O[C@@H](C)[C@@H](OS(=O)(=O)[O-])[C@@H](OS(=O)(=O)O)[C@@H]9O)[C@@H](O)[C@H](O[C@@H]9[C@@H](NC(C)=O)[C@H](O[C@@H]([C@H](O[C@@H]%10O[C@@H](C)[C@@H](OS(=O)(=O)[O-])[C@@H](OS(=O)(=O)O)[C@@H]%10O)[C@@H](O)CO)[C@H](O)C(=O)O)O[C@H](COS(=O)(=O)[O-])[C@@H]9OS(=O)(=O)[O-])O[C@@H]8C(=O)O)O[C@H](COS(=O)(=O)[O-])[C@@H]7OS(=O)(=O)[O-])O[C@@H]6C(=O)[O-])O[C@H](COS(=O)(=O)[O-])[C@@H]5OS(=O)(=O)[O-])O[C@@H]4C(=O)[O-])O[C@H](COS(=O)(=O)[O-])[C@@H]3OS(=O)(=O)[O-])O[C@@H]2C(=O)[O-])O[C@H](COS(=O)(=O)[O-])[C@H](OS(=O)(=O)[O-])[C@@H]1O[C@@H]1O[C@H](C(=O)[O-])[C@@H](O[C@@H]2O[C@H](COS(=O)(=O)[O-])[C@H](OS(=O)(=O)[O-])[C@H](O[C@@H]3O[C@H](C(=O)[O-])[C@@H](O[C@@H]4O[C@H](COS(=O)(=O)[O-])[C@H](OS(=O)(=O)[O-])[C@H](O[C@@H]5O[C@H](C(=O)O)[C@@H](O[C@@H]6O[C@H](COS(=O)(=O)[O-])[C@H](OS(=O)(=O)[O-])[C@H](O[C@@H]7OC(C(=O)O)=C[C@H](O[C@@H]8O[C@@H](C)[C@@H](OS(=O)(=O)[O-])[C@@H](OS(=O)(=O)O)[C@@H]8O)[C@H]7O)[C@H]6NC(C)=O)[C@H](O[C@@H]6O[C@@H](C)[C@@H](OS(=O)(=O)[O-])[C@@H](OS(=O)(=O)O)[C@@H]6O)[C@H]5O)[C@H]4NC(C)=O)[C@H](O[C@@H]4O[C@@H](C)[C@@H](OS(=O)(=O)[O-])[C@@H](OS(=O)(=O)O)[C@@H]4O)[C@H]3O)[C@H]2NC(C)=O)[C@H](O[C@@H]2O[C@@H](C)[C@@H](OS(=O)(=O)[O-])[C@@H](OS(=O)(=O)O)[C@@H]2O)[C@H]1O.[Na+].[Na+].[Na+].[Na+].[Na+].[Na+].[Na+].[Na+].[Na+].[Na+].[Na+].[Na+].[Na+].[Na+].[Na+].[Na+].[Na+].[Na+].[Na+].[Na+].[Na+].[Na+].[Na+].[Na+].[Na+].[Na+].[Na+].[Na+].[Na+].[Na+]`, for which the inhibition entry in experiment [1], in experiment [4], in [5], in experiment [6], in experiment [8] and in [13] was “inactive” each time. Besides, the inhibition result in experiment [14], in experiment [15], in experiment [16] and in [21] was “inactive” each time. Moreover, the “inhibition (active/not active)” value in experiment [2] is “inactive”. Further, the Ratio at Coagulation factor IX [3] is 235 U; in experiment [7] it was 403 U; in the experiment on Rattus norvegicus [9] it was 284.73 U; in the experiment with Rattus norvegicus [10], 13.38 U; in the experiment with Plasma [11] it was 319.64 U; on Coagulation factor IX [18], 11.2 U. The Ratio with Plasma [19] is 15.15 U; in experiment [20] it was 19.1 U. Also, the inhibition result in experiment [12] and in experiment [17] was “Active” each time.
